What follows are compounds tested on Phytophthora citrophthora (assay: Example B3: action on phytopathogenic soil fungi, growth on agar in Petri dishes). Conditions: 120 h, 30 ppm, agar medium, 22° C., 5 days, read-out: inhibition of the development of the fungus.
Type: cell-based

| SMILES | inhibition at 30 ppm [%] |
| --- | --- |
| COc1ccc(-c2c(C(=O)N3CCOCC3)cc(-c3ccc(Cl)cc3)n2C)cc1OC [Compound 619] | ≥ 80 |
| COc1ccc(-c2c(C(=O)N3CCOCC3)cc(-c3ccccc3)n2C)cc1OC [Compound 621] | ≥ 80 |
| COc1ccc(-c2nc(C(C)(C)C)ccc2C(=O)N2CCOCC2)cc1OC [Compound 3110] | ≥ 80 |
| COc1ccc(-c2nc(C=C(C)C)ccc2C(=O)N2CCOCC2)cc1OC [Compound 3111] | ≥ 80 |
| COc1ccc(-c2nc(-c3ccsc3)ccc2C(=O)N2CCOCC2)cc1OC [Compound 3112] | ≥ 80 |
| COc1ccc(-c2nc(-c3cccs3)ccc2C(=O)N2CCOCC2)cc1OC [Compound 3113] | ≥ 80 |
| COc1ccc(-c2nc(-c3cccc4ccccc34)ccc2C(=O)N2CCOCC2)cc1OC [Compound 3114] | ≥ 80 |
| COc1ccc(-c2nc(-c3ccc4ccccc4c3)ccc2C(=O)N2CCOCC2)cc1OC [Compound 3115] | ≥ 80 |
| COc1ccc(-c2nc(-c3ccco3)ccc2C(=O)N2CCOCC2)cc1OC [Compound 3116] | ≥ 80 |
| COCCN(C)C(=O)c1ccc(-c2ccsc2)nc1-c1ccc(OC)c(OC)c1 [Compound 3117] | ≥ 80 |
| CCN(C)C(=O)c1ccc(-c2ccsc2)nc1-c1ccc(OC)c(OC)c1 [Compound 3118] | ≥ 80 |
| CCN(CC)C(=O)c1ccc(-c2ccsc2)nc1-c1ccc(OC)c(OC)c1 [Compound 3119] | ≥ 80 |

Source: patent US5475132A, “Antifungal agents based on amides containing a phenyl group” (Rhone-Poulenc Agrochimie, priority 1988, dated 1995)
